Data on three compounds can be found in patent US11357800B2, “Compositions for the treatment of neuropathic pain and sensitization of tumors to chemotherapies” (Henry Ford Health System, priority 2016, dated 2022).

Like-named read-outs stand apart in the source and are kept apart here.

The subject of data set [1] is human colon carcinoma HCT-116. The data set can be described thus: Tumor cell viability, MTT assay, HCT-116. Type of data set: cell-based. The note with it: read-out: IC50 cytotoxicity of oxaliplatin. As for the experimental part:
(§1) Tumor cell viability was measured using an MTT assay.

Data set [2] has as its system human ovarian carcinoma OVCAR3. Nature of the data set: Tumor cell viability, MTT assay, OVCAR3. The following applies: read-out: IC50 cytotoxicity of oxaliplatin. In kind it is cell-based. As for the experimental part:
as §1
Background: Tetrazolium dyes change colour on reduction, which living cells bring about.

Data set [3] concerns miR-15b, miR-26a, miR-125b. The following applies: tumor tissues.
The subject of data set [4] is intraepidermal nerve fibers, sciatic nerve small fibers, DRG neurons. Nature of the data set: Histology and TEM of footpad, sciatic nerve and DRG of tumor bearing mice. In kind it is in vivo, mouse. The text has this:
Intraepidermal nerve fibers (IENFs) are sensory nerves that innervate dermis and epidermis. […] Calcitonin gene-related peptide (CGRP) DRG neurons are primary sensory neurons encoding heat and cold perception.

The next data set relates to DRG neurons. The data set can be described thus: Axonal growth of DRG neurons in microfluidic device.
The test system of data set [5] is P-gp1, ABCC1, cleaved Caspase 3. The following applies: tumor tissues.
For data set [6] the following is noted: one randomized trial; cited from earlier work.
The conditions of data set [7]: in vivo; cited from earlier work.
Where [8] appears, read: double immunofluorescent analysis.

As for `O=C1[O][Pt]2([NH][C@@H]3CCCC[C@H]3[NH]2)[O]C1=O` [Oxaliplatin], the IC50 in data set [1] (HCT-116, with CEC derived exosomes (3×10^2 exosomes)) came out at 6.9 ± 1 µM; in data set [1] (HCT-116, without CEC derived exosomes), 16.1 ± 2.1 µM; in data set [2] (OVCAR3, with CEC derived exosomes (3×10^2 exosomes)), 2.3 ± 0.1 µM; in data set [2] (OVCAR3, without CEC derived exosomes), 6.5 ± 1.1 µM; in the data set on DRG neurons (read-out: Half Maximal Inhibitory Concentration, IC50, growth of axons, oxaliplatin applied into the axonal compartment, 24 h), 0.0091 µM. For the same compound, the miR-15b level entry in data set [3] was “significantly reduced”. Moreover, the miR-26a level result in data set [3] is “significantly reduced”. For the same compound, the “IEFN density assayed by the number of PGP9.5 positive fibers” value in data set [4] (dermal tissues of tumor bearing mice) is recorded as “significantly reduced”. In addition, in data set [4] (setting [8]), the “diameters of CGRP positive DRG neurons” value was “selectively reduced”. In data set [4] (setting [8]), the “diameters of NF200 positive DRG neurons” value is on record as “reduced diameters of CGRP, but not NF200 positive neurons”. The compound also registered an axonal growth inhibited with DRG neurons (oxaliplatin 3.6 nM (reduced concentration, IRF of 2.5)) of 27%. In the data set with DRG neurons (oxaliplatin 9.1 nM (regular dose)), this compound came in with an axonal growth suppressed of 50%. Moreover, in data set [5], the “protein level of ABCC1” value was “increased”. In addition, the “protein level of P-gp1” value in data set [5] is listed as “increased”.

On to `CNCCC=C1c2ccccc2CCc2ccccc21` [nortriptyline], for which, in data set [6], the “therapy of CIPN symptoms” value was “ineffective”.

On to `Cc1c(C)c2c(c(C)c1O)CC[C@@](C)(CCC[C@H](C)CCC[C@H](C)CCCC(C)C)O2` [α-tocopherol], for which the “antineuropathic effect on oxaliplatin-induced behavioral alterations” value in data set [7] is listed as “about 50%”.
